US9192585B2, “Inhibitors of cognitive decline” (Cognition Therapeutics, Inc., priority 2009, dated 2015)

How the values were obtained:
[1] = system: Abeta oligomer effects on membrane trafficking in primary rat neurons; assay: Primary neuron-based functional screening assay, membrane trafficking (Example EE); assay type: cell-based; settings: for block of Abeta oligomer effects (decrease of intracellular formazan-filled vesicles): added to cultures prior to oligomer addition, FIG. 2A
Text: Primary rat neurons grown for at least 3 weeks in vitro were chosen as the basis for this screening assay. […] More complex systems such as acute or organotypic brain slices are very useful but not amenable to high throughput screening. […] For this reason, primary neuronal cultures were chosen because of their ability to be used in high throughput screens and fidelity to what occurs in vivo.
The MTT assay can be used as a measure of toxicity in cultures. Yellow tetrazolium salts were endocytosed by cells and reduced to insoluble purple formazan in the endosomal pathway. The level of purple formazan was a reflection of the number of actively metabolizing cells in culture, and reduction in the amount of formazan was taken as a measure of cell death or metabolic toxicity in culture.
The exocytosis assay was adapted for use with mature primary neuronal cultures grown for 3 weeks in vitro.
Compounds were added to neurons first, then oligomers were added.
Data were the average of 3 experiments. Scale bar=20 micron in FIG. 2D.

[2] = system: Abeta oligomer-mediated memory deficits; assay: Fear conditioning assay (Example FF); assay type: in vivo; settings: mice
Protocol: CT0109 was tested in an animal model of a memory-dependent behavioral task known as fear conditioning. The study protocol was designed based on published protocols (See e.g. Puzzo D, Privitera L, Leznik E, FàM, Staniszewski A, Palmeri A, Arancio O. Picomolar amyloid-beta positively modulates synaptic plasticity and memory in hippocampus. J Neurosci. 2008 Dec. 31; 28(53):14537-45). The formation of contextual memories is dependent upon the integrity of medial temporal lobe structures such as the hippocampus. In this assay mice were trained to remember that a particular salient context (conditioned stimulus; CS) is associated with an aversive event, in this case a mild foot shock (the unconditioned stimulus, US). Animals that show good learning will express an increase in freezing behavior when placed back into the same context. This freezing is absent in a novel context. Increased freezing in the context indicates strong hippocampal-dependent memory formation in animals. Memory tested in Fear Conditioning is sensitive to elevations of soluble Aβ. […] The fear condition model for memory was performed as described herein.

[3] = system: Abeta oligomer-induced acceleration of exocytosis in primary neurons; assay: Exocytosis assay/MTT assay (Example AA); assay type: cell-based; settings: Rattus norvegicus, Primary neuron; 28 μM memantine, control; read-out: inhibition of oligomer effects
Protocol: Primary neurons from E18 Sprague-Dawley rat embryos are plated at optimized concentrations in 384 well plates in NB media (Invitrogen). Neurons are maintained in cultures for 3 weeks, with twice weekly feeding of NB media with N2 supplement (Invitrogen). A test compound is added to cells, followed by addition of Vehicle or Abeta oligomer preparations (1.5 μM), and incubated for 1 to 24 hr at 37° C. in 5% CO2. MTT reagent (3-(4,5-dimethylthiazol-2-yl)-2,5diphenyl tetrazolium bromide) (Roche Molecular Biochemicals) is reconstituted in phosphate buffered saline to 5 mg/mL. 10 μL of MTT labeling reagent is added to each well and incubated at 37° C. for 1 h, then imaged. […]
Optimal cell density is determined based on cellular response to Abeta oligomers using the exocytosis assay as a readout, and immunohistochemical analysis of the relative proportion of glia to neurons in the cultures. Cultures are monitored on a weekly basis with immunohistochemistry and image processing-based quantification to monitor the percentage of the cultures that are neurons vs. glia (Glial cells). […]
Human amyloid peptide 1-42 is obtained from California Peptide, with lot-choice contingent upon quality control analysis. […] Toxicity is monitored in each image-based assay via quantification of nuclear morphology visualized with the DNA binding dye DAPI (Invitrogen). […]

COc1cc(CCC(C)NCc2ccc(C(F)(F)F)cc2)ccc1O (stereo not drawn) [CT0109, 4-(3-(4-(trifluoromethyl)benzylamino)butyl)-2-methoxyphenol]
EC50 ([1]; Rattus norvegicus, Neuron, FIG. 2B, read-out: EC50, inhibition of oligomer effects on membrane trafficking): 7 µM
block of oligomer-mediated memory deficits at 2 pmol dose ([2]; 2 pmol dose + Abeta (200 nM), FIG. 3 bar d, p<0.05): completely blocked
block of oligomer effects on memory ([2]; administered prior to Abeta oligomer administration, across doses): blocked oligomer effects on memory in a dose-dependent manner
adverse behavioral changes ([2]; any dose): No adverse behavioral changes
effect of compound alone on memory ([2]; without Abeta, data not shown): No effect

C[N+](C)(C)CCCCCC[N+](C)(C)C [hexamethonium bromide]
block of Abeta oligomer effects (decrease of intracellular formazan-filled vesicles) [1]: none were active

O[C@H]1[C@H](O)[C@@H](O)[C@H](O)[C@@H](O)[C@@H]1O [scyllo-inositol]
block of Abeta oligomer effects (decrease of intracellular formazan-filled vesicles) [1]: none were active

C[C@]12N[C@H](Cc3ccccc31)c1ccccc12 [MK-801]
block of Abeta oligomer effects (decrease of intracellular formazan-filled vesicles) [1]: none were active

CC12CC3CC(C)(C1)CC(N)(C3)C2 [Memantine, memantine]
inhibition at 28 µM [3]: 50%
